pEC50: −log10 of the molar value. Counter-ions that a name gives are not always drawn.

The target of one experiment is T1, Bcl-2-related protein A1 (Homo sapiens, UniProt Q16548).
T1 sequence (Q16548 whole entry): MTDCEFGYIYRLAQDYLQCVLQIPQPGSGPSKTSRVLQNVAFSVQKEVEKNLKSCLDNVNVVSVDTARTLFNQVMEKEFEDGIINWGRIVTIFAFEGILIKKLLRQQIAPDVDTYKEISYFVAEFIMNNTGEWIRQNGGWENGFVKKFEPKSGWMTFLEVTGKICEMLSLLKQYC
As to the kind of experiment: Bfl-1/Bim complex disruptors – biochemical, multiplexed, bead-based flow cytometry, dose response (AID 1320). The following applies: inactive by the depositor's call; pH 7.4; 4 °C. Background: A flow cytometer gives signals particle by particle.
Broadly, the pEC50 is the negative decadic logarithm of the EC50, by convention in mol/L. Read a low pEC50 as a high EC50. On to `Cc1ccc(-c2cc(-c3ccc(Cl)cc3)c(C#N)c(N)n2)o1` [2-azanyl-4-(4-chlorophenyl)-6-(5-methylfuran-2-yl)pyridine-3-carbonitrile], for which the negative logarithm of the EC50 (pEC50) was 5.58.
`Cc1ccc(/C=C/C(=O)c2ccccc(=O)c2O)c(C)c1` [3-[3-(2,4-dimethylphenyl)acryloyl]-2-hydroxy-2,4,6-cycloheptatrien-1-one] had a pEC50 of 4.29.
In turn, `N#Cc1cccc(/N=c2/ssnc2Cl)c1` [3-[(4-chloro-5-dithiazolylidene)amino]benzonitrile] showed a pEC50 of 4.84.
On the same count and under the same terms, the result for `COc1ccc(N2C(=O)C(Cl)=C(Oc3cccc(OC)c3)C2=O)cc1` [3-chloro-4-(3-methoxyphenoxy)-1-(4-methoxyphenyl)-1H-pyrrole-2,5-dione] reads 6.17; that for `CCOc1cc(S(=O)(=O)Nc2ccccn2)ccc1F` [3-ethoxy-4-fluoro-N-(2-pyridinyl)benzenesulfonamide], 4.35; that for `Cc1nc2ncccn2c1-c1csc(Nc2ccccc2)n1` [4-(2-methyl-3-imidazo[1,2-a]pyrimidinyl)-N-phenyl-2-thiazolamine], 4.93.
In the case of `CNc1ccc(Br)cc(C(=O)/C=C/c2cccc(OC)c2)c1=O` [4-bromo-2-[3-(3-methoxyphenyl)acryloyl]-7-(methylamino)-2,4,6-cycloheptatrien-1-one], the negative logarithm of the EC50 (pEC50) is 4.76. The pEC50 values of the last two compounds are within 0.2 log units of each other.
`Cc1cc(C)nc(SCc2cc(=O)c(OC(=O)c3ccc(Cl)c([N+](=O)[O-])c3)co2)n1` [4-chloro-3-nitrobenzoic acid [6-[[(4,6-dimethyl-2-pyrimidinyl)thio]methyl]-4-oxo-3-pyranyl] ester] showed a pEC50 of 4.71.
In turn, `COc1cc(/N=c2/ssnc2Cl)cc(OC)c1` [4-chloro-N-(3,5-dimethoxyphenyl)-5-dithiazolimine] gave a pEC50 of 4.82.
For `CCOC(=O)c1sc(N)c(C(=O)Nc2ccccc2OC)c1C` [5-amino-4-[(2-methoxyanilino)-oxomethyl]-3-methyl-2-thiophenecarboxylic acid ethyl ester], the pEC50 is 5.25.
The compound `O=C(N[N-][CH+]c1ccc(-c2ccccc2[N+](=O)[O-])o1)c1cncc(Br)c1` [5-bromo-N-[[5-(2-nitrophenyl)furan-2-yl]methylideneamino]pyridine-3-carboxamide] showed a pEC50 of 4.47.
Regarding `O=C1C(=Cc2ccco2)NC(=S)N1c1ccccc1` [(5E)-5-(furan-2-ylmethylidene)-3-phenyl-2-sulfanylideneimidazolidin-4-one], the pEC50 was 4.83.
In turn, `CC(C)CN1C(=O)/C(=C/c2ccco2)NC1=S` [(5Z)-5-(2-furanylmethylidene)-3-(2-methylpropyl)-2-sulfanylidene-4-imidazolidinone] had a pEC50 of 4.96.
Turning to `Cc1ccc(-c2ccc(/C=C3\SC(N4CCOCC4)=NC3=O)o2)cc1` [(5Z)-5-[[5-(4-methylphenyl)-2-furanyl]methylidene]-2-(4-morpholinyl)-4-thiazolone], the pEC50 is 4.70.
Turning to `COc1cc(C2Nc3cccc4cccc(c34)N2)ccc1OC(C)=O` [Acetic acid 4-(2,3-dihydro-1H-perimidin-2-yl)-2-methoxy-phenyl ester], the pEC50 is 4.96.
Consider `COC(=O)CSc1ncnc2c1sc1nc(-c3ccco3)c3c(c12)CC(C)(C)OC3` [MLS000039339], for which the pEC50 is 4.91.
`C/C(=C\c1ccco1)C1Nc2cccc3cccc(c23)N1` [MLS000055728]: the negative-log EC50 (pEC50) is 4.80.
Turning to `CCOc1cc(C2Nc3cccc4cccc(c34)N2)ccc1O` [MLS000068595], the negative logarithm of the EC50 (pEC50) was 4.43.
`COc1ccc(-n2c(NC(=O)c3ccco3)c(C#N)c3nc4ccccc4nc32)cc1` [MLS000079925]: the pEC50 was 4.79.
`Cc1cc2n(c1)CCn1c(C)ccc1-2` [MLS000104384] showed a pEC50 of 4.90.
Take `Cc1ccc(C)n1-c1ccc(N2CCOCC2)cc1` [MLS000111760]: the pEC50 was 4.94.
As to `Clc1nc(NCc2cccnc2)nc(N2CCOCC2)n1` [MLS000121154], the negative-log EC50 (pEC50) was 4.51. This pEC50 lies 0.43 log units lower than the previous one.
Same read-out and setting: the result for `CCOC(=O)C(=Cc1cccc(O)c1)c1nc2sc(C)c(C)c2c(=O)[nH]1` [MLS000393989] reads 5.02.
Still for that read-out and setting: the result for `S=c1[nH]cc(-c2ccccc2)n1-c1ccccc1Cl` [MLS000417182] reads 5.65; that for `CCCCNc1[nH]c(=S)nc2cc(OC)c(OC)cc12` [MLS000520261], 4.76.

The same experiment, now with this note: pH 7.4; 4 °C.
For the compound `Cc1ccc(-c2cc(-c3ccc(C)o3)nc(N)c2C#N)cc1` [2-amino-6-(5-methylfuran-2-yl)-4-(4-methylphenyl)pyridine-3-carbonitrile], the negative-log EC50 (pEC50) is 5.65.
`Cc1cc(-c2cc(-c3ccc(Cl)cc3)nc(N)c2C#N)co1` [2-azanyl-6-(4-chlorophenyl)-4-(5-methylfuran-3-yl)pyridine-3-carbonitrile] had a negative-log EC50 (pEC50) of 5.41.
In the case of `CCN(CC)c1ccc(NC2=C(Cl)C(=O)c3ccccc3C2=O)cc1` [2-chloro-3-{[4-(diethylamino)phenyl]amino}naphthoquinone], the pEC50 is 6.74.
Consider `CC(=O)OCCNc1cc(Sc2nc3ccccc3[nH]2)c2nonc2c1[N+](=O)[O-]` [2-{[7-(1H-benzimidazol-2-ylthio)-4-nitro-2,1,3-benzoxadiazol-5-yl]amino}ethyl acetate], for which the negative-log EC50 (pEC50) is 5.25.
Still for that read-out and setting: then `O=C(/C=C/c1ccccc1Cl)c1ccccc(=O)c1O` [3-[(E)-3-(2-chlorophenyl)prop-2-enoyl]-2-oxidanyl-cyclohepta-2,4,6-trien-1-one], with 5.05; and `O=C(c1ccccc1)c1[nH]n(-c2ccccc2)c2c(O)n(-c3ccccc3)c(=O)c1-2` [3-benzoyl-1,5-diphenyl-3a,6a-dihydropyrrolo[3,4-c]pyrazole-4,6-dione], with 5.87; and `COc1ccc(N2C(=O)C(=Nc3c(C)n(C)n(-c4ccccc4)c3=O)C(Cl)C2=O)cc1` (stereo not drawn) [3-chloranyl-4-[(1,5-dimethyl-3-oxidanylidene-2-phenyl-pyrazol-4-yl)amino]-1-(4-methoxyphenyl)pyrrole-2,5-dione], with 4.92.
The compound `Cc1c(N=C2C(=O)N(c3ccccc3)C(=O)C2Cl)c(=O)n(-c2ccccc2)n1C` (stereo not drawn) [3-chloranyl-4-[(1,5-dimethyl-3-oxidanylidene-2-phenyl-pyrazol-4-yl)amino]-1-phenyl-pyrrole-2,5-dione] had a pEC50 of 4.81.
Turning to `Cc1cc(N)ccc1N1CCCC1` [3-methyl-4-(1-pyrrolidinyl)aniline;hydrochloride], the pEC50 is 5.10. This pEC50 is 0.29 log units higher than that of the compound before.
As to `CNC(CC(=O)c1ccc([N+](=O)[O-])cc1)C(Cl)(Cl)Cl` (stereo not drawn) [4,4,4-Trichloro-3-methylamino-1-(4-nitro-phenyl)-butan-1-one], the pEC50 is 6.33.
Compound `COc1cc(C2Nc3cccc4cccc(c34)N2)cc(OC)c1O` [4-(2,3-dihydro-1H-perimidin-2-yl)-2,6-dimethoxyphenol] showed a negative logarithm of the EC50 (pEC50) of 5.76.
Still for that read-out and setting: then `C=CS(=O)(=O)c1sc(Cl)c(N2CCOCC2)c1[N+](=O)[O-]` [4-(2-chloranyl-5-ethenylsulfonyl-4-nitro-thiophen-3-yl)morpholine], with 5.26; and `Cc1ccc(-c2c3c([nH]c(=S)c2C#N)CCCC3)o1` [4-(5-methylfuran-2-yl)-2-sulfanylidene-5,6,7,8-tetrahydro-1H-quinoline-3-carbonitrile], with 5.09; and `CCN(CC)c1ccc(Nc2nc(N3CCOCC3)c3ccccc3n2)cc1` [4-N,4-N-diethyl-1-N-(4-morpholin-4-ylquinazolin-2-yl)benzene-1,4-diamine], with 5.05.
For the compound `CCOc1cccc(CNc2ccc(O)cc2)c1OCc1ccc(Cl)cc1` [4-[[2-[(4-chlorophenyl)methoxy]-3-ethoxyphenyl]methylamino]phenol], the pEC50 is 5.55.
Take `CNc1ccc(Br)cc(C(=O)/C=C/c2cccc(OC)c2OC)c1=O` [4-bromanyl-2-[(E)-3-(2,3-dimethoxyphenyl)prop-2-enoyl]-7-(methylamino)cyclohepta-2,4,6-trien-1-one]: the pEC50 is 5.08.
For `CN(C)c1ccc(C=C2C(=O)NC(=O)NC2=O)cc1[N+](=O)[O-]` [5-[[4-(dimethylamino)-3-nitrophenyl]methylidene]-1,3-diazinane-2,4,6-trione], the pEC50 was 5.33.
`Cc1ccc(-c2nc3c(c(=O)[nH]c(=O)n3Cc3ccccc3)n2C)o1` [7-methyl-8-(5-methyl-2-furanyl)-3-(phenylmethyl)purine-2,6-dione] had a pEC50 of 5.71.
`COc1cc(/C=C2\CC/C(=C\c3cc(OC)c(O)c(OC)c3)C2=O)cc(OC)c1O` [(2E,5E)-2,5-bis[(4-hydroxy-3,5-dimethoxyphenyl)methylidene]cyclopentan-1-one]: the pEC50 is 5.41.
Consider `O=C1/C(=C\c2ccc(-c3ccccc3Cl)o2)SC(=S)N1CC1CCCO1` (stereo not drawn) [(5E)-5-[[5-(2-chlorophenyl)furan-2-yl]methylidene]-3-(oxolan-2-ylmethyl)-2-sulfanylidene-1,3-thiazolidin-4-one], for which the negative-log EC50 (pEC50) is 5.59.
`Fc1ccc(C=C2CCCC3C2=NC(=S)NC3c2ccc(F)cc2)cc1` (stereo not drawn) [(8E)-4-(4-fluorophenyl)-8-[(4-fluorophenyl)methylidene]-1,3,4,5,6,7-hexahydroquinazoline-2-thione] gave a negative-log EC50 (pEC50) of 5.18.
Compound `CN1CCc2cccc3c2[C@H]1Cc1ccc(O)c(O)c1-3` [APOMORPHINE HYDROCHLORIDE] showed a negative-log EC50 (pEC50) of 4.33.
As to `Cc1ccc(-c2cc(-c3ccc(F)cc3)nc(N)c2C#N)o1` [MLS000082831], the pEC50 was 5.61. Against the preceding compound, the pEC50 is 1.28 log units higher.
Compound `CCOC(=O)C1CCN(C(=O)Nc2ccc3nc(-c4ccco4)c(-c4ccco4)nc3c2)CC1` [MLS000113285] showed a pEC50 of 5.93.
`Clc1ccc2c(N=NCc3ccccc3Br)ccnc2c1` [MLS000336087]: the pEC50 is 4.91. Against the preceding compound, the pEC50 is 1.02 log units lower.
With `O=[N+]([O-])c1ccc(N=NCc2ccc(O)c(O)c2O)c(S(=O)(=O)N2CCOCC2)c1` [MLS000336720], the pEC50 was 5.35.
`O=[N+]([O-])c1ccc(N2CCN(c3ccc(O)cc3)CC2)c(Cl)c1` [MLS000374649] showed a pEC50 of 5.75. This pEC50 is 0.40 log units higher than that of the compound before.
Still for that read-out and setting: the result for `Cc1ccc(NC2=C(NC(=O)c3ccccc3)C(=O)c3ccccc3C2=O)cc1Cl` [MLS000392290] reads 5.64.

The record behind these values is BindingDB's records for doi:10.7270/Q2CN728N (Nmmlsc, 2008).
